Molecular target: Alkaline phosphatase, tissue-nonspecific isozyme (Homo sapiens) (UniProt P05186)
Assay: human TNAP enzyme inhibitors, SAR follow-up, biochemical, luminescent, dose response (AID 1056)
Conditions: purified human TNAP, luminescent substrate read-out

Row | Compound | IC50 [nM]
1 | CCOc1ccc(Cl)cc1S(=O)(=O)Nc1cccnc1 | 537
2 | O=C(Cn1cnc(Br)c1)c1ccc(O)c(O)c1 | 47500
3 | O=C(c1cc(-c2cc(F)c(Cl)cc2Cl)n[nH]1)N(CCO)CCO | 127
4 | O=C(c1cc(-c2ccc(Cl)cc2Cl)n[nH]1)N1CCN(CCO)CC1 | 375
5 | COc1ccc2c(c1OC)C(=O)OC2CC(=O)c1ccc(O)c(O)c1 (stereo not given) | 29200
6 | COCCNC(=O)c1cc(-c2ccc(Cl)cc2Cl)n[nH]1 | 46.4
7 | CCOc1cc(C)c(Cl)cc1S(=O)(=O)Nc1cccnc1 | 691
8 | COc1cc(S(=O)(=O)Nc2cccnc2)c(OC)cc1Cl | 1130
9 | COc1cccc(S(=O)(=O)Nc2cnc3ccccc3c2)c1 | 25800
10 | COc1cc(C)c(Cl)cc1S(=O)(=O)Nc1cccnc1 | 511
11 | COc1cc(C)c(C)cc1S(=O)(=O)Nc1cccnc1 | 1680
12 | O=C(NCCO)c1cc(-c2cc(F)c(Cl)cc2Cl)n[nH]1 | 100
13 | CC(C)NC(=O)c1cc(-c2cc(F)c(Cl)cc2Cl)n[nH]1 | 4850
14 | O=C(c1cc(-c2ccc(Cl)cc2Cl)n[nH]1)N1CCOCC1 | 574
15 | O=C1C2CCCCC2C(=O)N1c1n[nH]c(Cc2ccccc2)n1 (stereo not given) | 1570
16 | CN(C)C(=O)c1cc(-c2cc(F)c(Cl)cc2Cl)n[nH]1 | 324
17 | COc1cc(S(=O)(=O)Nc2cccnc2)c(OC)cc1Br | 1550
18 | CC(C)CNC(=O)c1cc(-c2ccc(Cl)cc2Cl)n[nH]1 | 81.5
19 | COc1ccc(OC)c(S(=O)(=O)Nc2cccnc2)c1 | 1060
20 | O=C1C2CC=CCC2C(=O)N1c1n[nH]c(-c2ccco2)n1 (stereo not given) | 4680
21 | CC(C)(C)NC(=O)c1cc(-c2ccc(Cl)cc2Cl)n[nH]1 | 398
22 | O=C1C2CC=CCC2C(=O)N1c1n[nH]c(-c2cccnc2)n1 (stereo not given) | 10500
23 | COc1ccc(C)cc1S(=O)(=O)Nc1cnc2ccccc2c1 | 649

Row | Compound | IC50 [nM]
24 | CN(C)C(=O)c1cc(-c2ccc(Cl)cc2Cl)n[nH]1 | 119
25 | O=C1C2CC=CCC2C(=O)N1c1n[nH]c(CCc2ccccc2)n1 (stereo not given) | 27900
26 | CCN1CCN(C(=O)c2cc(-c3ccc(Cl)cc3Cl)n[nH]2)CC1 | 488
27 | O=C1c2ccccc2C(=O)N1c1n[nH]c(Cc2ccccc2)n1 | 670
28 | O=C(NCCO)c1cc(-c2cc(F)c(F)cc2F)n[nH]1 | 134
29 | O=C1C2C3C=CC(C3)C2C(=O)N1c1n[nH]c(CCc2ccccc2)n1 (stereo not given) | 30600
30 | CC(C)CCNC(=O)c1cc(-c2ccc(Cl)cc2Cl)n[nH]1 | 459
31 | O=C(NCCO)c1cc(-c2ccc(Cl)cc2Cl)n[nH]1 | 44.4
32 | COc1ccc(F)cc1S(=O)(=O)Nc1cccnc1 | 1290
33 | O=C(CNc1nc2ccccc2[nH]1)c1ccc(O)c(O)c1 | 93800
34 | O=C(NCCCCO)c1cc(-c2ccc(Cl)cc2Cl)n[nH]1 | 34.5
35 | O=C(NCCO)c1cc(-c2ccc(F)cc2F)n[nH]1 | 35
36 | CN1CCN(C(=O)c2cc(-c3ccc(Cl)cc3Cl)n[nH]2)CC1 | 828
37 | COc1cc(S(=O)(=O)Nc2cccnc2)c(OC)cc1C | 1490
38 | CCN(CC)C(=O)c1cc(-c2ccc(Cl)cc2Cl)n[nH]1 | 285
39 | O=C(c1cc(-c2ccc(Cl)cc2Cl)n[nH]1)N(CCO)CCO | 46.8
40 | O=C(NCCCO)c1cc(-c2cc(F)c(Cl)cc2Cl)n[nH]1 | 55.8
41 | Cc1cn(CC(=O)c2ccc(O)c(O)c2)cn1 | 41100
42 | O=C(c1cc(-c2ccc(Cl)cc2Cl)n[nH]1)N1CCCCCC1 | 1450
43 | CC(C)NC(=O)c1cc(-c2ccc(Cl)cc2Cl)n[nH]1 | 51.1
44 | Cc1nc(Br)cn1CC(=O)c1ccc(O)c(O)c1 | 8740
45 | O=C(NCCCO)c1cc(-c2ccc(Cl)cc2Cl)n[nH]1 | 31.3

Source: PubChem BioAssay AID1056 (Sanford-Burnham Center for Chemical Genomics, 2008)
